These results are taken from patent publication US8163691B2, “Compositions and methods for identifying agents which modulate PTEN function and PI-3 kinase pathways” (Indiana University Research & Research Corporation, priority 2000, dated 2012).

“Also recorded” adds a separate entry of the source.

In series [1] the test system is U87MG cells. Nature of the series: Orthotopic (intracranial) U87MG brain tumor model in nude mice. Type of series: in vivo, mouse. As to conditions: examined on day 42; DMSO controls 4/5 by day 25. On the procedure:
To determine whether PTEN exerts control over angiogenesis and/or the growth of glial tumors, an orthotopic brain tumor model was developed in which PTEN-deficient tumor cells were genetically manipulated in vitro and then stereotactically injected into the frontal cerebral cortex of nude mice. The U87MG cell line employed in these studies is derived from a patient diagnosed with glioblastoma multiforme, a highly malignant and uniformly fatal brain tumor. This tumor and other human glioblastomas and glioblastoma cell lines contain a mutation in both PTEN alleles (U87MG cells have a homozygous mutation in PTEN resulting in a null genotype). We also examined the effect of LY294002 on tumor growth and incidence of brain tumor in a nude mouse model. In a previous study, in vivo activity of LY294002 against an ovarian carcinoma was observed. […] In other words, the carcinoma was not assessed in its natural milieu. Hu et al., Clin. Can. Res. 6:880). […] In control mice treated with DMSO, 4/5 had grossly visible and/or histologically confirmed brain tumors by H & E analysis by day 25 after implantation, whereas in 0/5 mice treated with LY294002 had grossly detectable or histologic evidence of intracranial tumor when examined on day 42.

Series [2] has as its system U87MG cells. Nature of the series: Subcutaneous U87MG tumor growth in nude mice. Format: in vivo, mouse. The note with it: LY294002 100 mg/kg daily i.p.; control approximately 400 mm3. On the procedure:
LY294002 was administered at a dosage of 100 mg/kg delivered daily by intraperitoneal injection in a small volume of 100% DMSO for 2 weeks, beginning 2 days after tumor implantation. […] Control mice were injected with small volume ([…]) of 100% DMSO. Daily measurement of tumor volume was performed in 3 coordinates using calipers. To determine whether PI-3 kinase exerts control over angiogenesis or the growth of glial tumors in vivo the orthotopic brain tumor model described in Example I was utilized. To assess the effect of LY294002 on angiogenesis, we treated mice with LY294002 (100 mg/kg/dose×2 weeks) or DMSO as negative control. Tumor volumes were recorded daily (FIG. 15). On day 14 we stained cryostat sections from subcutaneous tumors for CD31 (PECAM). CD31 is an endothelial marker used to measure the microvessel density of these tumors. Microvessel density was assessed from multiple digitized images of CD31-stained tumor tissue at 100× magnification (3 fields were evaluated per tumor) and counted blindly for the number of CD31 positive microvessels per unit surface area as described (Weidner et al., (1991) N. Engl. J. Med. 324:1). […] Importantly, microvessel determinations were performed on day 7 after implantation to compare angiogenic activity of tumors of similar size. […]

Series [3] deals with U87MG cells. Briefly: Microvessel density (CD31 positive microvessels) in subcutaneous U87MG tumor tissue. Format: in vivo, mouse. As to conditions: LY294002 100 mg/kg/dose x 2 weeks i.p.; controls (DMSO) 50±6. On the procedure: Microvessel density (MVD) was determined for each brain tumor as described in Example I by CD31 staining, performed on cryostat sections (7 μm), fixed in acetone, blocked in 1% goat serum and stained with anti-CD31 antibody (Pharmingen, #01951D). Antibody staining was visualized with peroxidase-conjugated anti-mouse antibody and counter stained with hematoxylin. A negative control was performed on each tumor tissue stained with mouse IgG. Two sections from each tumor were scanned under low power magnification (40×) to identify areas of highest CD31 positive vessel density (Weidner et al. 1991), followed by digitization of 5 fields from this area. The digitized images representing one 100× field were counted for the number of CD31 positive vascular elements. Data was collected independently by two researchers in a blind study. The average number of microvessels per digitized 100× field was determined for 5 tumors per experimental group and analyzed by Student's t-test. […] Tumor volumes were recorded daily (FIG. 15). […] Microvessel density was assessed from multiple digitized images of CD31-stained tumor tissue at 100× magnification (3 fields were evaluated per tumor) and counted blindly for the number of CD31 positive microvessels per unit surface area as described (Weidner et al., (1991) N. Engl. J. Med. 324:1). […]

The nature of series [4]: Tolerability of treatment in tumor-bearing mice. Format: in vivo, mouse. The note with it: 100 mg/kg daily i.p. in 100% DMSO for 2 weeks. On the procedure:
LY294002 was administered at a dosage of 100 mg/kg delivered daily by intraperitoneal injection in a small volume of 100% DMSO for 2 weeks, beginning 2 days after tumor implantation. […] Control mice were injected with small volume ([…]) of 100% DMSO. Daily measurement of tumor volume was performed in 3 coordinates using calipers.

In series [5] the test system is Cbl. Nature of the series: Tyrosine phosphorylation of Cbl after stimulation with sensitized sRBCs (Cbl IP, anti-phosphotyrosine immunoblot). Type of series: cell-based, mouse. (In western blotting, separated proteins are transferred to a membrane and probed.)
Series [6] concerns J774A.1 cells. Briefly: Fcγ receptor mediated phagocytosis of IgG sensitized sRBCs by J774A.1 cells (phagocytic index). Format: cell-based, mouse.
For series [7], the system named is U87MG glioblastoma cells, null for PTEN. Nature of the series: MTT viable cell assay, chemosensitivity of parental PTEN-null U87MG glioblastoma cells. Format: cell-based, human. As to the method: (§1) MTT assays. Cells were seeded (6000/well) into a 96 well plate. Twenty-four hours later the growth medium was changed to 1% serum and other reagents were added as described. Treatments proceeded for 24-72 h. At each time point the MTT assay was performed. MTT (10 ul of a 5 mg/ml stock solution dissolved in RPMI medium) is added to each well of cultures 4 hours before quantitation of viable cell number by measuring absorbance in each well at 650 nm with a microplate reader (Molecular Devises,) Agents added to cell LY294002 alone or in combination with etoposide. In addition, comparison was made between U87MG cells null for PTEN and reconstituted with PTEN protein. The absorbance of each well was measured at […] with a microplate reader.
In general terms: Tetrazolium dyes change colour on reduction, which living cells bring about.

In series [8] the test system is Glioblastoma cells engineered to stably express wild-type PTEN. Briefly: MTT viable cell assay, chemosensitivity of glioblastoma cells stably expressing wild-type PTEN. Type of series: cell-based, human. As to the method:
as §1

As to `O=c1cc(N2CCOCC2)oc2c(-c3ccccc3)cccc12` [LY294002], the “mice with grossly detectable or histologic evidence of intracranial tumor” value in series [1] was 0/5. Besides, in series [2], the “tumor size at the time of microvessel analysis” value was “approximately 35 mm3”. In addition, the “microvessel density (MVD), CD31 positive microvessels” value in series [3] was 22±5. For the same molecule, the “untoward effects in treated mice” value in series [4] is on record as “No untoward effects”.
Turning to `Cc1ccc(-c2nn(C(C)(C)C)c3ncnc(N)c23)cc1` [PP1], the “tyrosine phosphorylation of Cbl induced by sensitized sRBCs” value in series [5] (PP1 10 μM, stimulation with sRBCs 5 minutes) is “inhibited significantly; also recorded: abrogated”. In series [5] (data not shown), the “dose dependence of the effect on Cbl tyrosine phosphorylation” value is “dose dependent”. Also, in series [5] (resting cells), the “basal tyrosine phosphorylation levels of Cbl” value was “suppressed the basal tyrosine phosphorylation levels of Cbl”. Moreover, in series [6] (PP1 10 μM, 1 h pretreatment, target to effector ratio 100:1), the “inhibition of phagocytosis of IgG coated sRBCs (phagocytic index)” value was “completely abrogated phagocytosis; also recorded: blocks the phagocytosis significantly”. The “dose dependence of inhibition of phagocytosis” value in series [6] (PP1 1, 5, 10 μM) is on record as “dose dependent manner”. For the same molecule, in series [6] (preincubation of the cells, concentration not given), the “inhibition of phagocytosis of sensitized sRBCs” value was “inhibit this response”.
As for `COc1cc([C@@H]2c3cc4c(cc3[C@@H](O[C@@H]3O[C@@H]5CO[C@@H](C)O[C@H]5[C@H](O)[C@H]3O)[C@H]3COC(=O)[C@H]23)OCO4)cc(OC)c1O` [etoposide], the IC50 turned out to be 4700 nM in series [7] (Homo sapiens, U-87 MG, U87MG null for PTEN, or cells stably expressing catalytically inactive PTEN (R130M cells), read-out: etoposide required to achieve a 50% cell kill) and 47 nM in series [8] (Homo sapiens, cells stably expressing wild-type PTEN, read-out: etoposide required to achieve a 50% cell kill). Further, in series [7] (etoposide 1 uM), the “cytotoxic activity of etoposide alone” value is given as “minimal cytotoxic activity”. For the same molecule, in series [8] (0.047 μM versus 4.7 μM), the “increase in sensitivity to etoposide, wild-type PTEN versus PTEN-null cells” value worked out at 100 fold.
